The values below come from paper PMC4591937 (Science translational medicine, 2015).

Series [1] deals with CD1 mice. The series is described as follows: Forced swim test. The series is classed as in vivo, mouse.
The subject of series [2] is OVX rat brain. Put plainly: Markers of estrogenic effects in the brain. The class given is in vivo. As to conditions: for Progesterone receptor (PR) expression in the preoptic area of the hypothalamus: OVX Sprague-Dawley rats, DHED s.c. 50 μg/kg, ICI 182,780 s.c. 1 mg/kg 1 h before DHED.
Series [3] concerns ERα in MCF-7Ca cells. The series is described as follows: ERα transactivation in MCF-7Ca breast cancer cells. The class given is cell-based, human. As to conditions: cultured MCF-7Ca cells, 1 nM.
Series [4] can be described thus: Drug distribution / pharmacokinetics in OVX rats. The class given is in vivo, rat.
Series [5] relates to lipid peroxidation. The series is described as follows: Inhibition of lipid peroxidation, ferric thiocyanate. The series is classed as biochemical. As to conditions: average ± SEM, n = 3.
Series [6] relates to lipid peroxidation. Put plainly: Inhibition of lipid peroxidation, thiobarbituric acid reactive substances. As to conditions: average ± SEM, n = 3. The class given is biochemical.
Series [7] can be described thus: Binding to human plasma proteins by rapid equilibrium dialysis. The class given is in vitro ADME.
Series [8] relates to ERE-luciferase reporter under transcriptional control of ERs. The series is described as follows: Bioluminescence imaging in OVX repTOP ERE-Luc mice. The series is classed as in vivo, mouse. The conditions noted are these: DHED s.c. or p.o. ≥200 μg/kg; E2 s.c. 20 μg/kg.
In series [9] the test system is uterus of OVX rodents. The series is classed as in vivo. The conditions noted are these: for Vaginal smear cytology during and after treatment: OVX rats.
Series [10] addresses T1, ERα (Homo sapiens, UniProt P03372).
T1 sequence (P03372 1-595): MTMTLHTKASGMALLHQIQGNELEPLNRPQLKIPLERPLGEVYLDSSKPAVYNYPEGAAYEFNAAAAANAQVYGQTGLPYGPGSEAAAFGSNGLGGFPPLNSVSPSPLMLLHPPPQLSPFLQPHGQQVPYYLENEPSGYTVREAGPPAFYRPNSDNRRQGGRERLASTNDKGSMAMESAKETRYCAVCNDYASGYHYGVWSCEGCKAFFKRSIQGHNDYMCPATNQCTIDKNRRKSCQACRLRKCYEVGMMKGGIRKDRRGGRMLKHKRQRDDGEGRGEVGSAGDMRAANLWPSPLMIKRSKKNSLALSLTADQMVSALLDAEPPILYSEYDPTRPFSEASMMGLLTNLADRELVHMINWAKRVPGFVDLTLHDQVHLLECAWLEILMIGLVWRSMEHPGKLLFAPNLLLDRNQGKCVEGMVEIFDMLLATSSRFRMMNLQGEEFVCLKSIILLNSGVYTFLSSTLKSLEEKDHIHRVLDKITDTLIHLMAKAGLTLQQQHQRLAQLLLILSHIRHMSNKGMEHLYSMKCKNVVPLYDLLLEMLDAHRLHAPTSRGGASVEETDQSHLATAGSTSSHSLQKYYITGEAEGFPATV
The series is described as follows: Estrogen receptor. The class given is binding.

Series [11] has as its target ERβ (Homo sapiens, UniProt Q92731). Put plainly: Estrogen receptor. The class given is binding.
Series [12] has as its system OVX Sprague-Dawley rats. The series is described as follows: Transient middle cerebral artery occlusion. The series is classed as in vivo, rat.
Series [13] concerns OVX rat. Put plainly: OVX rat hot flush model. The class given is in vivo. As to conditions: p.o. 30 μg/kg.
Series [14] relates to middle-aged OVX Fisher-344 rats. Put plainly: Delay match-to-sample plus maze test. The class given is in vivo, rat. The conditions noted are these: continuous s.c. minipump 4 μg daily, 48 days, versus control.
Series [15] deals with human MCF7-Ca xenografts. The series is described as follows: MCF-7Ca xenograft growth in nude mice. The class given is in vivo, mouse. The conditions noted are these: 100 μg/kg s.c. daily for 8 weeks.
The nature of series [16]: physchem.
Setting [17] is: 0.8 to 100 μg/kg s.c. 1 h before tMCAO.

In brackets after ≈: the same amount, converted by molar mass.

Sequence of ERβ (Q92731 whole entry, species assumed): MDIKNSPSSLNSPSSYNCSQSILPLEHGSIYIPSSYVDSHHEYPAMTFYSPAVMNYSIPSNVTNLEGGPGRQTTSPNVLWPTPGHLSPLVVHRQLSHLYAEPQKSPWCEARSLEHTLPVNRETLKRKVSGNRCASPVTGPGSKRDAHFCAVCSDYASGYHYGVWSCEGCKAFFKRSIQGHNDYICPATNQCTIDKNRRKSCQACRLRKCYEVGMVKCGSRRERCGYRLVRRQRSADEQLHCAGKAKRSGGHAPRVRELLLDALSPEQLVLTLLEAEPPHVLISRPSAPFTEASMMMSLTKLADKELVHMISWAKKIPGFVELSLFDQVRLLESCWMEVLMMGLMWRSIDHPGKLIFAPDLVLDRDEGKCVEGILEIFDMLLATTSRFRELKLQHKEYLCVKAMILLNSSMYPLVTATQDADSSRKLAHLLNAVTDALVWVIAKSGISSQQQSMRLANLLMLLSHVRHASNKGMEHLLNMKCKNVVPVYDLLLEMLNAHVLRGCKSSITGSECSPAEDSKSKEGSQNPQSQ

On to `C[C@]12CC[C@@H]3c4ccc(O)cc4C[C@@H](CCCCCCCCC[S+]([O-])CCCC(F)(F)C(F)(F)F)[C@H]3[C@@H]1CC[C@@H]2O` (stereo partly shown) [ICI 182,780], for which, in series [1] (4 mg/kg s.c. co-injected with E2 or DHED 50 μg/kg s.c., 5 days), the “Effect of ER antagonist on antidepressant-like effect of E2 and DHED” value was “completely blocked this antidepressant-like effect”. In addition, the “Brain concentration by LC-MS/MS” value in series [1] (15 min after completion of the FST, systemic dosing) is 6.6 ±0.9 ng/g tissue. In series [2], the “Progesterone receptor (PR) expression in the preoptic area of the hypothalamus” value is recorded as “abolished the effect of DHED treatment on PR induction”.

With `C[C@]12CCC(=O)C=C1CC[C@@H]1[C@@H]2CC[C@]2(C)C(=O)CC[C@@H]12` [Δ^4A, Δ^4-androstenedione], the ERα transactivation result in [3] is “induced the expected cancer-promoting ERα transactivation”.

For the compound 16,16,17-d3-DHED, the “Site of labelled E2 formation from deuterated prodrug” value in series [4] (OVX Sprague-Dawley rats, i.v., tissue 15 min post-dosing) is “d3-E2 was produced exclusively in the brain”.

What is called IC50 is the midpoint of a concentration-inhibition curve. On to `C[C@]12CC[C@@H]3c4ccc(O)cc4CC[C@H]3[C@@H]1CC[C@@H]2O` [Compound E2, 17β-estradiol, reference compound], for which the IC50 in series [5] (read-out: Inhibition of lipid peroxidation: IC50, FTC) is 11.8 ± 1.6 µM; in series [6] (read-out: Inhibition of lipid peroxidation: IC50, TBARS) it was 3.9 ± 0.4 µM. The “Binding to human plasma proteins” value in series [7] (average ± SEM, n = 3) turned out to be 97.8 ± 0.3%. For the same compound, the “ERE reporter activation / bioluminescence in peripheral tissues” value in series [8] is recorded as “significant increase of photon emission from the hepatic area”. Besides, the “Vaginal smear cytology during and after treatment” value in [9] was “vaginal smears with many cornified cells”. The ERα transactivation result in series [3] is given as “induced the expected cancer-promoting ERα transactivation”.

Usually half-life stands for how long it takes for the measured level to halve. High values mean slow decline, low ones rapid decline. In general, solubility refers to how much of the substance goes into solution per volume. High values mean much dissolved substance, low ones little dissolved substance. As to `C[C@]12CC[C@H]3[C@@H](CCC4=CC(=O)C=C[C@@]43O)[C@@H]1CC[C@@H]2O` [DHED, 10β,17β-dihydroxyestra-1,4-dien-3-one], the IC50 in [10] is above 10 µM. In addition, the IC50 in series [11] is above 10 µM. Further, in series [5], the “Inhibition of lipid peroxidation: IC50, FTC” value was “n.i”. Also, in series [6], the “Inhibition of lipid peroxidation: IC50, TBARS” value is given as “n.i”. For the same compound, the “Binding to human plasma proteins” value in [7] (human) was 58.0 ± 0.6%. Moreover, in series [4] (OVX rats after systemic dosing), the “Prodrug level in the brain” value is reported as “did not detect DHED in the brain”. For the same compound, in [4] (PK studies of E2 in brain and serum, p.o. (table S1)), the Oral absorption result is reported as “complete absorption after oral administration”. In [4] (female, Sprague-Dawley, rat, serum, iv, 200 ug/kg), this compound yielded a half-life of 5.1 ± 0.6 min. The “ERE reporter activation / bioluminescence in peripheral tissues” value in [8] was “did not activate the ERE reporter construct”. For the same compound, the “Neuroprotection with post-infarct treatment” value in [12] (100 μg/kg s.c. after tMCAO) was “had a neuroprotective effect”. In addition, in [12] (setting [17]), the Infarct volume result is given as “dose-dependent reduction of the infarct volumes” and the “Neurological deficits (ND score)” value is on record as “attenuation of neurological deficits”. In addition, in series [1] (10 μg/kg s.c. daily for 5 days, 1 h after last injection), the “Antidepressant-like activity in the FST” value is listed as “outperformed direct administration of E2”. Besides, the Tail-skin temperature rise entry in [13] was “blunted the tail-skin temperature rise”. Besides, the Working memory errors result in [14] was “significantly decreased working memory errors”. In [2] (OVX Fischer 344 rats, 4 μg/day s.c. pumps, 48 days), the “ChAT-IR stereological cell counts in medial septum and vertical diagonal band” value is recorded as “increased choline acetyltransferase immunoreactive (ChAT-IR) stereological cell counts”. The “Dendritic spines and spine heads in hippocampal CA1 neurons” value in series [2] (OVX Fischer 344 rats, 10 μg s.c. every four days for 40 days) is “increased the number of dendritic spines and spine heads”. Besides, the “Progesterone receptor (PR) expression in the preoptic area of the hypothalamus” value in [2] is listed as “stimulated progesterone receptor (PR) expression”. Moreover, the “Expression of estrogen-regulated uterine proteins” value in series [9] (OVX Swiss-Webster mice, 50 μg/kg s.c. daily for 5 days, versus control) is reported as “no changes in the expression”. The “Vaginal smear cytology during and after treatment” value in series [9] is reported as “remained continuously in diestrus”. Moreover, in series [9] (OVX rodents, i.v., s.c., p.o. or 48-day s.c. minipump), the “Wet uterus weight gain (uterotrophic effect)” value is listed as “did not result in wet uterus weight gain”. Moreover, the “Growth of aromatase-transfected MCF-7Ca xenografts” value in [15] was “did not stimulate the growth”. The compound also displayed a solubility in series [16] of 60.3 ± 1.7 µg/mL (≈ 209 µM).
